Measurements reported in PubChem BioAssay (NCI).
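Tested at 5 concentrations; 48 h exposure; 96-well plates; endpoints linearly interpolated, else capped at highest concentration. GI50 = concentration required for 50% inhibition of growth. The concentration for full growth arrest is given as TGI.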

Key:
Assay in all cases: DTP human tumour cell line panel, 48 h; in the data active means GI50 below about 0.43 µM; inactive means the rest
[1] = test system: RXF 393 renal
[2] = test system: IGROV1 ovarian
[3] = test system: MALME-3M melanoma
[4] = test system: HT29 colon
[5] = test system: UACC-257 melanoma
[6] = test system: HL-60(TB) leukemia
[7] = test system: EKVX NSCLC
[8] = test system: LOX IMVI melanoma
[9] = test system: SW-620 colon
[10] = test system: COLO 205 colon
[11] = test system: RPMI-8226 leukemia
[12] = test system: T-47D breast
[13] = test system: PC-3 prostate
[14] = test system: HCC-2998 colon
[15] = test system: HOP-92 NSCLC
[16] = test system: DU-145 prostate
[17] = test system: NCI-H460 lung
[18] = test system: SK-OV-3 ovarian
[19] = test system: UO-31 renal
[20] = test system: SK-MEL-2 melanoma
[21] = test system: SF-295 CNS
[22] = test system: OVCAR-8 ovarian
[23] = test system: MDA-MB-231 breast
[24] = test system: NCI-H23 lung
[25] = test system: CCRF-CEM leukemia
[26] = test system: TK-10 renal
[27] = test system: SN12C renal
[28] = test system: MDA-MB-435
[29] = test system: KM12 colon
[30] = test system: MOLT-4 leukemia
[31] = test system: NCI/ADR-RES ovarian
[32] = test system: HCT-15 colon
[33] = test system: OVCAR-4 ovarian
[34] = test system: HS 578T breast
[35] = test system: HOP-62 NSCLC
[36] = test system: SR leukemia
[37] = test system: A549 NSCLC
[38] = test system: SNB-19 CNS
[39] = test system: K-562 leukemia
[40] = test system: MCF7 breast
[41] = test system: ACHN renal
[42] = test system: CAKI-1 renal
[43] = test system: SNB-75 CNS
[44] = test system: HCT-116 colon
[45] = test system: SK-MEL-5 melanoma
[46] = test system: U251 CNS
[47] = test system: A498 renal
[48] = test system: SF-268 CNS
[49] = test system: 786-0 renal
[50] = test system: BT-549 breast
[51] = test system: NCI-H226 lung
[52] = test system: SF-539 CNS
[53] = test system: NCI-H522 lung
[54] = test system: OVCAR-3 ovarian
[55] = test system: OVCAR-5 ovarian
[56] = test system: M14 melanoma
[57] = test system: SK-MEL-28 melanoma
[58] = test system: UACC-62 melanoma

O=C(CN1CCN(c2ccc(Cl)cc2)CC1)N1CCN(c2nnc(-c3ccccc3)c(-c3ccccc3)n2)CC1
inactive: GI50 [1] 15 µM | GI50 [2] 42.9 µM | GI50 [3] 2.7 µM | GI50 [4] 2.43 µM | GI50 [5] 26.6 µM | GI50 [6] 2.33 µM | GI50 [7] 7.57 µM | GI50 [8] 7.26 µM | GI50 [9] 38.9 µM | GI50 [10] 3.47 µM | GI50 [11] 2.77 µM | GI50 [12] 2 µM | GI50 [13] 3.1 µM | GI50 [14] 9.29 µM | GI50 [15] 6.68 µM | GI50 [16] > 100 µM | GI50 [17] 4.97 µM | GI50 [18] 75.7 µM | GI50 [19] 4.41 µM | GI50 [20] > 100 µM | GI50 [21] 4.88 µM | GI50 [22] 52.4 µM | GI50 [23] > 100 µM | GI50 [24] 4 µM | GI50 [25] 21.6 µM | GI50 [26] > 100 µM | GI50 [27] 8.23 µM | GI50 [28] 7.25 µM | GI50 [29] 4.04 µM | GI50 [30] 2.41 µM | GI50 [31] 5.4 µM | GI50 [32] 5.12 µM | GI50 [33] 1.75 µM | GI50 [34] 51.6 µM | GI50 [35] > 100 µM | GI50 [36] 2.73 µM | GI50 [37] 28.6 µM | GI50 [38] > 100 µM | GI50 [39] 5.91 µM | GI50 [40] 3.38 µM | GI50 [41] 5.07 µM | GI50 [42] 4.93 µM | GI50 [43] 7.56 µM | GI50 [44] 3.42 µM | GI50 [45] 2.11 µM | GI50 [46] 8.02 µM | GI50 [47] > 100 µM | GI50 [48] > 100 µM | GI50 [49] 5.64 µM | GI50 [50] 3.14 µM | GI50 [51] > 100 µM | GI50 [52] 7.65 µM | GI50 [53] 16.2 µM | GI50 [54] 8.38 µM | GI50 [55] > 100 µM | GI50 [56] > 100 µM
> 100 µM: TGI [1] | TGI [2] | TGI [3] | TGI [5] | TGI [6] | TGI [7] | TGI [8] | TGI [9] | TGI [10] | TGI [11] | TGI [12] | TGI [13] | TGI [14] | TGI [15] | TGI [16] | TGI [17] | TGI [18] | TGI [19] | TGI [20] | TGI [21] | TGI [22] | TGI [23] | TGI [24] | TGI [25] | TGI [26] | TGI [27] | TGI [28] | TGI [29] | TGI [30] | TGI [31] | TGI [32] | TGI [33] | TGI [34] | TGI [35] | TGI [37] | TGI [38] | TGI [39] | TGI [40] | TGI [41] | TGI [42] | TGI [43] | TGI [44] | TGI [46] | TGI [47] | TGI [48] | TGI [49] | TGI [50] | TGI [51] | TGI [52] | TGI [53] | TGI [54] | TGI [55] | TGI [56]
19.5 µM: TGI [4]
15.7 µM: TGI [36]
8.31 µM: TGI [45]

CC(=O)Nc1sc2c(c1-c1nc3ccccc3s1)CNC2
15.8 µM: TGI [35]
inactive: GI50 [1] 2.25 µM | GI50 [2] 2.07 µM | GI50 [3] 2.21 µM | GI50 [4] 3.76 µM | GI50 [5] 5.41 µM | GI50 [6] 2.84 µM | GI50 [7] 2.59 µM | GI50 [57] 2.94 µM | GI50 [8] 1.67 µM | GI50 [9] 2.33 µM | GI50 [10] 1.88 µM | GI50 [11] 3.57 µM | GI50 [12] 2.36 µM | GI50 [13] 3.37 µM | GI50 [14] 2.58 µM | GI50 [15] 4.21 µM | GI50 [16] 2.93 µM | GI50 [17] 1.94 µM | GI50 [18] 4.05 µM | GI50 [19] 0.648 µM | GI50 [20] 2.67 µM | GI50 [21] 2.25 µM | GI50 [22] 2.45 µM | GI50 [23] 3.09 µM | GI50 [24] 2.44 µM | GI50 [25] 3.74 µM | GI50 [26] 4.74 µM | GI50 [27] 2.5 µM | GI50 [28] 3.48 µM | GI50 [29] 3.38 µM | GI50 [30] 2.03 µM | GI50 [31] 1.97 µM | GI50 [32] 1.56 µM | GI50 [33] 3.08 µM | GI50 [34] 7.05 µM | GI50 [35] 2.38 µM | GI50 [36] 1.68 µM | GI50 [37] 2.26 µM | GI50 [38] 3.49 µM | GI50 [39] 2.23 µM | GI50 [40] 0.865 µM | GI50 [41] 1.28 µM | GI50 [42] 2.05 µM | GI50 [43] 1.81 µM | GI50 [44] 1.99 µM | GI50 [45] 5.23 µM | GI50 [46] 4.06 µM | GI50 [47] 7.4 µM | GI50 [48] 2.94 µM | GI50 [49] 2.61 µM | GI50 [50] 6.83 µM | GI50 [51] 3.27 µM | GI50 [52] 2.17 µM | GI50 [53] 2.62 µM | GI50 [58] 2.76 µM | GI50 [54] 3.85 µM | GI50 [55] 3.05 µM | GI50 [56] 2.47 µM
19.3 µM: TGI [11]
> 50 µM: TGI [16] | TGI [22] | TGI [29] | TGI [42]
9.93 µM: TGI [57] | TGI [21]
18.4 µM: TGI [13]
22.3 µM: TGI [12]
39.2 µM: TGI [18]
16.2 µM: TGI [23]
6.74 µM: TGI [8]
11.1 µM: TGI [39]
11.2 µM: TGI [45]
14.7 µM: TGI [50]
7.56 µM: TGI [41]
9.73 µM: TGI [10]
14.8 µM: TGI [5]
48.3 µM: TGI [9]
19.4 µM: TGI [4]
12.5 µM: TGI [28] | TGI [44]
11.7 µM: TGI [58]
8.75 µM: TGI [3]
15.5 µM: TGI [27]
9.71 µM: TGI [20] | TGI [56]
8.89 µM: TGI [32]
15 µM: TGI [48]
21.9 µM: TGI [7]
16.7 µM: TGI [51]
10.2 µM: TGI [17]
28.9 µM: TGI [38]
12.6 µM: TGI [36]
7.96 µM: TGI [1]
15.7 µM: TGI [31]
11.6 µM: TGI [6]
9.2 µM: TGI [30]
19.2 µM: TGI [15]
14.9 µM: TGI [47]
7.88 µM: TGI [40]
9.6 µM: TGI [49]
9.92 µM: TGI [14]
22.6 µM: TGI [34]
24.8 µM: TGI [33]
25 µM: TGI [37]
18 µM: TGI [55]
8.52 µM: TGI [52]
11.4 µM: TGI [19]
11.8 µM: TGI [24]
11.9 µM: TGI [2]
22.2 µM: TGI [25]
24.4 µM: TGI [26] | TGI [54]
9.52 µM: TGI [43]
10.8 µM: TGI [53]
30.3 µM: TGI [46]
